# Measurements as given in publication PMC11672637, “7-O-Carboxylic Acid-Substituted 3-O-Alkyl Difluoroquercetin; An Aztreonam-Potentiating Agent Against Carbapenemase-Producing Pseudomonas aeruginosa Through Simultaneous Inhibition of Metallo-β-Lactamase and Efflux Pump” (Antibiotics, 2024).
# Key:
# human red blood cells = assay: Hemolytic activity assay; format: cell-based; settings: human RBCs; 4–128 mg/L tested
# Procedure: Washed human red blood cells (hRBCs, Innovative Research, Novi, MI, USA) were diluted 1:100 in HEPES-NaOH buffered saline (HBS) [150 mM NaCl/5 mM HEPES-NaOH (pH 7.4)]. Samples (100 μL) were taken from the serially diluted (4 to 128 mg/L) compound 5 and mixed with 250 μL of hRBCs in 1.5 mL microcentrifuge tube. After incubation at 37 °C for 30 min, the tubes were centrifuged at 3000 rpm for 5 min. The supernatant (50 μL), thus obtained, was transferred to transparent, flat-bottom 96-well plates and absorption was measured at 405 nm (Cytation 5 imaging multimode reader, BioTek Instruments, Inc., Winooski, VT, USA). In some cases, 1% TritonX-100 or HBS buffer was used instead of the compound 5 as positive and negative controls, respectively. The percentage of hemolysis was calculated as follows: % Hemolysis = (ODtest − ODHBS)/[…] × 100%.
# KPC-2 = molecular target: T1, KPC-2 (Klebsiella pneumoniae, UniProt Q9F663); assay: β-lactamase inhibition assay (nitrocefin); format: biochemical; settings: nitrocefin substrate; read-out: BLi, IC50 KPC-2
# T1 construct: purchased LifeSpan Biosciences, Inc. LS-G26598
# T1 sequence (Q9F663 25-293, looked up, species assumed): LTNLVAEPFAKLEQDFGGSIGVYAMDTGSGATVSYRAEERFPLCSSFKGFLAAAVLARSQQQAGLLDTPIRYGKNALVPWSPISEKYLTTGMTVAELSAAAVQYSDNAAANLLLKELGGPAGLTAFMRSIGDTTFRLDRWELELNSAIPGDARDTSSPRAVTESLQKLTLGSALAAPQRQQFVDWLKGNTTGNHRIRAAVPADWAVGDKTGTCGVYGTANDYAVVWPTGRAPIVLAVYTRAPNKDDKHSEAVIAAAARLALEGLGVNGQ
# Procedure: (§1) Recombinant AmpC, OXA-48 (residues 23–265) and VIM-2 (residues 27–266) were prepared from Escherichia coli based on previously established protocols. KPC-2 and NDM-1 are commercially available from LifeSpan Biosciences, Inc., Seattle, WA, USA (LS-G26598) and RayBiotech, Inc., Peachtree Corners, GA, USA (230-00554), respectively. For β-lactamase inhibition assay, in a 96-well plate, 70–0.1 μM (in PBS) of the synthesized compounds (1~14) (100 μL) were mixed with diluted β-lactamase stock (2% DMSO in 200 μL). In a separate 96-well plate, a substrate of AmpC, KPC-2, OXA-48, and VIM-2 (nitrocefin) and NDM-1 (imipenem) were added into each well (final concentrations of 70 μM for nitrocefin and 100 μM for imipenem). After incubation at 37 °C for 20 min, the mixture of the synthesized compounds (1~14) and β-lactamase in one plate was added to the substrate in the other plate. Enzymatic hydrolysis of the substrate was then monitored by a Cytation 5 imaging multimode reader (BioTek Instruments Inc., Winooski, VT, USA) at 486 nm and 300 nm for nitrocefin and imipenem, respectively, for 15 min. The rates of hydrolysis in the presence of the inhibitors were determined when the reaction rate plateaued. Comparison of the enzymatic hydrolysis rates in the presence and the absence of inhibitors (100%) provided the percentage of enzyme inhibition at each concentration of the synthesized compounds. The IC50 values were obtained after non-linear regression (sigmoidal dose-responses) by GraphPad Prism 5 (GraphPad Software, Boston, MA, USA).
# OXA-48 = molecular target: T2, OXA-48 (Klebsiella pneumoniae, UniProt Q6XEC0); assay: β-lactamase inhibition assay (nitrocefin); format: biochemical; settings: nitrocefin substrate; read-out: BLi, IC50 OXA-48
# T2 construct: OXA-48 (residues 23–265); made in house; host or cells: Escherichia coli
# T2 sequence (Q6XEC0 23-265 limits assumed): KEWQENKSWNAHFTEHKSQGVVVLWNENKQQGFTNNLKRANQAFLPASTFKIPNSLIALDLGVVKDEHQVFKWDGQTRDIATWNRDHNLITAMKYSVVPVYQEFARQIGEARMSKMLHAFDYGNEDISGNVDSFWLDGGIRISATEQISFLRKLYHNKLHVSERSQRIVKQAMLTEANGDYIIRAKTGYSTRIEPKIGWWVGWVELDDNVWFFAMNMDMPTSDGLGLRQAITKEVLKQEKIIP
# Procedure: as §1
# AmpC = assay: β-lactamase inhibition assay (nitrocefin); format: biochemical; settings: nitrocefin substrate; read-out: BLi, IC50 AmpC
# Procedure: as §1
# VIM-2 = molecular target: T3, VIM-2 (Escherichia coli, UniProt Q5U7L7); assay: β-lactamase inhibition assay (nitrocefin); format: biochemical; settings: nitrocefin substrate; read-out: BLi, IC50 VIM-2
# T3 construct: VIM-2 (residues 27–266); made in house; host or cells: Escherichia coli
# Procedure: as §1
# NDM-1 = molecular target: T4, NDM-1 (Klebsiella pneumoniae, UniProt C7C422); assay: β-lactamase inhibition assay (imipenem); format: biochemical; settings: imipenem substrate; read-out: BLi, IC50 NDM-1
# T4 construct: purchased RayBiotech, Inc. 230-00554
# T4 sequence (C7C422 29-270, looked up, species assumed): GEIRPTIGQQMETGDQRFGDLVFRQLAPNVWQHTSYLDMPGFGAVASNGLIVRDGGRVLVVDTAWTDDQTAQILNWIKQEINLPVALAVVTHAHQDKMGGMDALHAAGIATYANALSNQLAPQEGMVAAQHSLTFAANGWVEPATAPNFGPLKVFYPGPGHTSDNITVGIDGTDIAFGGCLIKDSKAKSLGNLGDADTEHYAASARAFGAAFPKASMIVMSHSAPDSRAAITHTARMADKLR
# Procedure: as §1
# HEK293 cells = assay: Cytotoxicity assay (WST-1); format: cell-based, human; settings: 24 h, 0.5–128 mg/L tested
# Procedure: The HEK293 cells were cultured in Dulbecco’s modified Eagle medium (DMEM) supplemented with 10% fetal bovine serum (FBS) and 1% penicillin-streptomycin solution at 37 °C with 5% CO2. The cells seeded into 96-well plates at 1.5 × 10^4 cells/well were incubated for 24 h. The compound 5 was added to the wells at concentrations ranging from 0.5 to 128 mg/L and incubated for 24 h. Then, for WST-1 assay, EZ-cytox solution (10 μL, DoGenBio, Seoul, Republic of Korea) was added to the wells and incubated for 1 h, and the absorbance was measured at 450 nm (Cytation 5 imaging multimode reader, BioTek Instruments, Inc., Winooski, VT, USA).
# In vivo toxicity = settings: 6-week-old C57BL/6J female mouse
# [1] = system: efflux pump activity in P. aeruginosa (PA-017, blaNDM); assay: EtBr accumulation, inhibition of efflux pump activity; format: cell-based; settings: EtBr fluorescence compared with positive control CCCP
# Procedure: The NDM-producing P. aeruginosa clinical isolate (PA-017, blaNDM) (5 mL, LB medium) was grown to reach the mid-log phase. After centrifugation at 3500 rpm for 15 min, the bacterial pellet was washed twice with PBS and resuspended to OD600 = 0.3 in PBS. To each well of a flat-bottomed black 96-well plate, 182 µL of the bacterial suspension, 4 µL of glucose [final concentration = 0.4% (w/v)], 4 µL of the synthesized compounds or positive control CCCP, and 10 µL of EtBr (final concentration = 1 µg/mL) were added. The plate was incubated at 37 °C, and fluorescence emission from EtBr (λex 480 nm/λem 630 nm) was recorded every 2 min (for 60 min) using a Cytation 5 imaging multi-mode reader (BioTek Instruments, Inc., Winooski, VT, USA).
structure (smiles),measurement,setting,value
"CC(C)(C)CCOc1c(-c2ccc(F)c(F)c2)oc2cc(OCC(=O)O)cc(O)c2c1=O [Compound 5, 2-((2-(3,4-Difluorophenyl)-3-(3,3-dimethylbutoxy)-5-hydroxy-4-oxo-4H-chromen-7-yl)oxy)acetic Acid]",Concentration up to which no noticeable toxic effect (hemolysis),human red blood cells,≥ 128 µg/mL
same,IC50,KPC-2,> 50 µM
same,IC50,OXA-48,> 100 µM
same,IC50,AmpC,> 50 µM
same,IC50,VIM-2,> 100 µM
same,IC50,NDM-1,6.1 ± 0.4 µM
same,Concentration at which cell viability was affected,HEK293 cells,greater than 64 mg/L
same,Dose up to which no toxicity was shown,In vivo toxicity,≥ 40 mg/kg
same,EPi (inhibition of efflux pump activity),[1],↑ ^g
